Data reported in patent publication US20090105305A1, “Therapeutic Agents - 550” (AstraZeneca AB, priority 2006, published 2009).

Biological target: T1, human Fatty Acid Synthase (Homo sapiens, UniProt P49327)
T1 construct: made in house
Test: Human FAS enzyme assay (decrease in NADPH fluorescence)
Assay type: biochemical
Conditions: for inhibition at 100 µM: % inhibition at a concentration of 100 micromolar; for IC50s in the range of about 0.001 μM to about 30 μM: compounds excluded from the claims by proviso
Source text: The compounds of the present invention are Fatty Acid Synthase inhibitors. […] Human and Rat FAS Enzyme Assay.
Fatty acid synthase is an enzyme complex that harbours seven enzymatic activities catalysing the reductive synthesis of long chain fatty acids from acetyl CoA and malonyl CoA to palmitate. When acetyl CoA and malonyl CoA are forming palmitate NADPH is consumed forming NADP. Since NADPH is fluorescent but not NADP the reaction can be measured by analysing the decrease in fluorescence.
Compounds were added to a black 384 well plate (Matrix) in a volume of 5 μl consisting of 20% DMSO and 80% Tris buffer pH 7.5, at a top concentration of 1 mM. NADPH, 30 μl of 166.6 μM, formulated in assay buffer (0.1M Tris ph7.5, 0.1 mM EDTA, 1 mM glutathione, 0.05% BSA), was then added to all of the wells of the plate. Fatty acid synthase Human or rat enzyme (0.4 μg, produced in house), dissolved in 20 mM Tris/HCl pH 7.5, 5 mM BOG, 1 mM TCEP, 10% glycerol, 1 mM EDTA, 150 mM NaCl, was then added to the plate in a volume of […]. Enzyme was added to all but the last two columns of the plate, to which, 10 μl of assay buffer was added (0.1M Tris ph7.5, 0.1 mM EDTA, 1 mM glutathione, 0.05% BSA) to provide a no enzyme assay control. Following a 15-minute incubation period, at room temperature, the plates were read on an Envision plate reader using 340 nm excitation and 460 nm emission filters. This served as a time zero background read. Substrates (an equal mix of both malonyl and acetyl CoA) were then added to the plates in a total volume of 5 μl. The concentrations of malonyl and acetyl CoA in the mixture were 500 μM and 150 μM respectively. Both were prepared as 10 mM stock solutions in distilled water and were subsequently diluted to working concentrations in assay buffer. Plates were then incubated for a further 60 minutes, at room temperature, before being read again on the Envision reader using the same parameters as previously used. The data was analysed by subtracting the background time zero data from that generated following the final 60 minute incubate and the percent inhibition compared to the maximum and minimum assay controls was determined. Sigmoid curves were fitted using Origin 7.5 Client software and IC50 values were determined.

T1 sequence (P49327 whole entry): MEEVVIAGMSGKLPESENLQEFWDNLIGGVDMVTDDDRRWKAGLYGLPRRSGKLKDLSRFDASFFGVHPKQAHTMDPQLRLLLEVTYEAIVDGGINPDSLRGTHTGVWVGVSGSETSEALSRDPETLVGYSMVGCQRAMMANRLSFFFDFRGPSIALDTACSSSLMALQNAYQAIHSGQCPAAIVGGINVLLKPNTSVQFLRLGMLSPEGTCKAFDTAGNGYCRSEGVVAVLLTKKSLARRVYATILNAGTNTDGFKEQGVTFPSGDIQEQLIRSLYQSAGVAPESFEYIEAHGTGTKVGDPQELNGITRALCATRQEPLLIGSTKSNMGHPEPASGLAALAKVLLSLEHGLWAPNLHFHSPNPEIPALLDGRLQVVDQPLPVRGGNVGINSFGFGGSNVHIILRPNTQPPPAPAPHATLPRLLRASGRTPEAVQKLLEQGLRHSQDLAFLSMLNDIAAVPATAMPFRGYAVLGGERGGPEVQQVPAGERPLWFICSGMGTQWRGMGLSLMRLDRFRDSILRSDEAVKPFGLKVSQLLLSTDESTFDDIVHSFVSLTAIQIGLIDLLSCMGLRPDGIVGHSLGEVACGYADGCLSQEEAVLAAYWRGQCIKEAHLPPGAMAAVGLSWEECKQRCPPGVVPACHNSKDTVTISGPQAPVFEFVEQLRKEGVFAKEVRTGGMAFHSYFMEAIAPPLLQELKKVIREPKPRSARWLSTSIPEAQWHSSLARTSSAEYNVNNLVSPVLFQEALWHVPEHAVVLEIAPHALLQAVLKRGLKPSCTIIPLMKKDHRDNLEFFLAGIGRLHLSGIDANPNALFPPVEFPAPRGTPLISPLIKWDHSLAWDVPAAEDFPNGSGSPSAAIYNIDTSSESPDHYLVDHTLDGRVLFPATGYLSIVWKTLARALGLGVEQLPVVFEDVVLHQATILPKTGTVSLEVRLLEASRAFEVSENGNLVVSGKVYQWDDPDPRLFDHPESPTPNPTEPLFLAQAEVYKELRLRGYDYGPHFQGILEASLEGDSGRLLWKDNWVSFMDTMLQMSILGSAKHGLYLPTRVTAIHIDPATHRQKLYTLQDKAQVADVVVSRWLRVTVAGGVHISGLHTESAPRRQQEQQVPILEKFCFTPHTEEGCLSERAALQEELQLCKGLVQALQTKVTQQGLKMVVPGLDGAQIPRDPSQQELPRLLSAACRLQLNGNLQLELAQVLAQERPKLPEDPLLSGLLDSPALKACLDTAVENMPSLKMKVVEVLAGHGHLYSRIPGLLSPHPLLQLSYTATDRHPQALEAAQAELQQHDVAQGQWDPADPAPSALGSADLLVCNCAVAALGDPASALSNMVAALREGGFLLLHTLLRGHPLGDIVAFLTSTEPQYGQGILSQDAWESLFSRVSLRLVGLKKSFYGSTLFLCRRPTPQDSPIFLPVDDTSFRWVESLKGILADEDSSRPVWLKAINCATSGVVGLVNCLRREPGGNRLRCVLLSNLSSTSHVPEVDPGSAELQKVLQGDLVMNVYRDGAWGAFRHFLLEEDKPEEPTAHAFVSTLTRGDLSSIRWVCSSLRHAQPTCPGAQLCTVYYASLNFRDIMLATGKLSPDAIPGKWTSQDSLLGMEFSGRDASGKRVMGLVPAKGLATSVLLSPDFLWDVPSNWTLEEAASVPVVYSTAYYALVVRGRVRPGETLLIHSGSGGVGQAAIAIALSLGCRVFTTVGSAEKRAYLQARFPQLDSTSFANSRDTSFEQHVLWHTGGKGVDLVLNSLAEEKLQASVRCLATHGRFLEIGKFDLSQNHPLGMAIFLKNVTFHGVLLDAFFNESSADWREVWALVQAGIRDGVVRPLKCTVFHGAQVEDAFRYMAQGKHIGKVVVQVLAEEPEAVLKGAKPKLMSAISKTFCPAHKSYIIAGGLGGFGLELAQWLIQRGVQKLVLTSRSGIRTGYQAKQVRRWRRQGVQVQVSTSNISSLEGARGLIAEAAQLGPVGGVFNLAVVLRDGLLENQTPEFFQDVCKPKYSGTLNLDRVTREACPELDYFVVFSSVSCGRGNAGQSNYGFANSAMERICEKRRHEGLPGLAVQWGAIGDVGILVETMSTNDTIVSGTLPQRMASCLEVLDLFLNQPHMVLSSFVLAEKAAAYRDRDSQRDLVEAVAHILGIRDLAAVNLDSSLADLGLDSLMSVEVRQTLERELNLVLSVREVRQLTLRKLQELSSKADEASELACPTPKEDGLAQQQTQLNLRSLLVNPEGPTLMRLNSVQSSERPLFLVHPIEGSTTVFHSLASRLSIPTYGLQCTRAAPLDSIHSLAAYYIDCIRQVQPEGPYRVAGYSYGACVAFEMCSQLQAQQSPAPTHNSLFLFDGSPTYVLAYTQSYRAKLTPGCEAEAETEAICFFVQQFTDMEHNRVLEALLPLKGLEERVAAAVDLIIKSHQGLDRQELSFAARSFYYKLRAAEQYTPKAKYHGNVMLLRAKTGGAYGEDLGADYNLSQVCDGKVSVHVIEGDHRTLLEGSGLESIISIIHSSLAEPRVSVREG

Work on `Cc1ccc(C(=O)N2CCC(c3ccc(OCC#N)cc3)CC2)cc1NS(C)(=O)=O` [Example 181, N-[5-[4-[4-(cyanomethoxy)phenyl]piperidine-1-carbonyl]-2-methylphenyl]methanesulfonamide] yielded an inhibition at 100 µM of 100%.

For `Cc1ccc(C(=O)N2CCC(c3ccc(C#N)c(C#N)c3)CC2)cc1NS(C)(=O)=O` [N-[5-[4-(3,4-dicyanophenyl)piperidine-1-carbonyl]-2-methylphenyl]methanesulfonamide], the “IC50s in the range of about 0.001 μM to about 30 μM” value (“IC50s in the range” below) was “do not have IC50s in the range of about 0.001 μM to about 30 μM”.

`Cc1ccc(C(=O)N2CCC(c3ccc(C#N)cc3)CC2)cc1NS(=O)(=O)CC(=O)N1CCOCC1` [Example 88, N-[5-[4-(4-cyanophenyl)piperidine-1-carbonyl]-2-methyl-phenyl]-2-morpholin-4-yl-2-oxo-ethanesulfonamide] was tested, and the inhibition at 100 µM was 89%.

In the case of `Cc1ccc(C(=O)N2CCC(c3ccc(CC(=O)O)cc3)CC2)cc1NS(=O)(=O)C1CCCCC1` [2-[4-[1-[3-(cyclohexylsulfonylamino)-4-methylbenzoyl]piperidin-4-yl]phenyl]acetic acid], the “IC50s in the range” value is reported as “do not have IC50s in the range of about 0.001 μM to about 30 μM”.

In the case of `Cc1ccc(C(=O)N2CCC(O)(c3ccc(Br)cc3)CC2)cc1NS(C)(=O)=O` [Example 200, N-[5-[4-(4-bromophenyl)-4-hydroxypiperidine-1-carbonyl]-2-methylphenyl]methane-sulfonamide], the inhibition at 100 µM is reported as 48%.

In the case of `CS(=O)(=O)Nc1cc(C(=O)N2CCC(c3ccc(C#N)cc3)CC2)ccc1Cl` [N-[2-chloro-5-[4-(4-cyanophenyl)piperidine-1-carbonyl]phenyl]methanesulfonamide], the “IC50s in the range” value is reported as “do not have IC50s in the range of about 0.001 μM to about 30 μM”.

`Cc1ccc(C(=O)N2CCC(c3ccc(C#N)cc3)CC2)cc1NS(=O)(=O)CC(F)(F)F` [Example 60, N-[5-[4-(4-cyanophenyl)piperidine-1-carbonyl]-2-methyl-phenyl]-2,2,2-trifluoro-ethanesulfonamide] showed an inhibition at 100 µM of 83%.

With `Cc1ccc(C(=O)N2CCC(c3ccc(S(=O)(=O)N4CCCC4)cc3)CC2)cc1NS(C)(=O)=O` [N-[2-methyl-5-[4-(4-pyrrolidin-1-ylsulfonylphenyl)piperidine-1-carbonyl]phenyl]methanesulfonamide] the “IC50s in the range” value was “do not have IC50s in the range of about 0.001 μM to about 30 μM”.

`Cc1ccc(C(=O)N2CCC(c3ccc([S+](C)[O-])cc3)CC2)cc1NS(C)(=O)=O` (stereo not drawn) [Example 182, N-[2-methyl-5-[4-(4-methylsulfinylphenyl)piperidine-1-carbonyl]phenyl]methanesulfonamide] was tested, and the inhibition at 100 µM was 80%.

In the case of `COc1cccc(C2CCN(C(=O)c3ccc(C)c(NS(C)(=O)=O)c3)CC2)c1` [N-[5-[4-(3-methoxyphenyl)piperidine-1-carbonyl]-2-methylphenyl]methanesulfonamide], the “IC50s in the range” value is reported as “do not have IC50s in the range of about 0.001 μM to about 30 μM”.

`C#Cc1cccc(C2CCN(C(=O)c3ccc(C)c(NS(C)(=O)=O)c3)CC2)c1` [N-[5-[4-(3-ethynylphenyl)piperidine-1-carbonyl]-2-methylphenyl]methanesulfonamide] was tested, and the “IC50s in the range” value was “do not have IC50s in the range of about 0.001 μM to about 30 μM”.

`Cc1ccc(C(=O)N2CCC(c3ccc(C#N)cc3)CC2)cc1NS(=O)(=O)c1ccccc1F` [Example 2, N-[5-[4-(4-cyanophenyl)piperidine-1-carbonyl]-2-methyl-phenyl]-2-fluoro-benzenesulfonamide] showed an inhibition at 100 µM of 82%.

With `Cc1ccc(C(=O)N2CCC(c3ccc(C(=O)N(C)C)cc3)CC2)cc1NS(=O)(=O)Cc1ccccc1` [Example 204, 4-[1-[3-(benzylsulfonylamino)-4-methylbenzoyl]piperidin-4-yl]-N,N-dimethylbenzamide] the inhibition at 100 µM was 78%.

For `CSc1ccc(C(=O)N2CCC(c3ccc(C#N)cc3)CC2)cc1NS(=O)(=O)Cc1ccccc1` [Example 160, N-[5-[4-(4-cyanophenyl)piperidine-1-carbonyl]-2-methylsulfanylphenyl]-1-phenylmethanesulfonamide], the inhibition at 100 µM was 89%.

For `Cc1ccc(NS(=O)(=O)c2ccc(C#N)cc2)cc1C(=O)N1CCC(c2ccc(C#N)cc2)CC1` [Example 49, 4-cyano-N-[3-[4-(4-cyanophenyl)piperidine-1-carbonyl]-4-methyl-phenyl]benzenesulfonamide], the inhibition at 100 µM was 83%.

For `CCCCS(=O)(=O)Nc1ccc(C)c(C(=O)N2CCC(c3ccc(C#N)cc3)CC2)c1` [Example 37, N-[3-[4-(4-cyanophenyl)piperidine-1-carbonyl]-4-methyl-phenyl]butane-1-sulfonamide], the inhibition at 100 µM was 91%.

`Cc1ccc(C(=O)N2CCC(c3ccc(C#N)cc3)CC2)cc1NS(=O)(=O)c1cccc(C(=O)O)c1` [Example 79, 3-[[5-[4-(4-cyanophenyl)piperidine-1-carbonyl]-2-methyl-phenyl]sulfamoyl]benzoic acid] showed an inhibition at 100 µM of 95%.

Compound `CC(=O)N1CCC(S(=O)(=O)Nc2cc(C(=O)N3CCC(c4ccc(C#N)cc4)CC3)ccc2C)C1` (stereo not drawn) [Example 153, 1-acetyl-N-[5-[4-(4-cyanophenyl)piperidine-1-carbonyl]-2-methyl-phenyl]pyrrolidine-3-sulfonamide] has an inhibition at 100 µM of 97%.

In the case of `Cc1ccc(C(=O)N2CCC(c3cccc(Br)c3)CC2)cc1NS(C)(=O)=O` [N-[5-[4-(3-bromophenyl)piperidine-1-carbonyl]-2-methylphenyl]methanesulfonamide], the “IC50s in the range” value is reported as “do not have IC50s in the range of about 0.001 μM to about 30 μM”.

`Cc1ccc(C(=O)N2CCC(c3ccc(CCC(=O)O)cc3)CC2)cc1NS(=O)(=O)C1CCCCC1` [Example 244, 3-[4-[1-[3-(cyclohexylsulfonylamino)-4-methylbenzoyl]piperidin-4-yl]phenyl]propanoic acid] showed an inhibition at 100 µM of 92.3%.

`CSc1ccc(C(=O)N2CCC(c3ccc(C#N)cc3)CC2)cc1NS(C)(=O)=O` [Example 159, N-[5-[4-(4-cyanophenyl)piperidine-1-carbonyl]-2-methylsulfanylphenyl]methanesulfonamide] gave an inhibition at 100 µM of 80%.

`CSCc1ccc(C(=O)N2CCC(c3ccc(C#N)cc3)CC2)cc1NS(C)(=O)=O` [Example 176, N-[5-[4-(4-cyanophenyl)piperidine-1-carbonyl]-2-(methylsulfanylmethyl)phenyl]methanesulfonamide] gave an inhibition at 100 µM of 78%.

For `Cc1ccc(C(=O)N2CCC(c3ccc(Cl)cc3)CC2)cc1NS(=O)(=O)C1CCS(=O)(=O)C1` (stereo not drawn) [Example 216, N-[5-[4-(4-chlorophenyl)piperidine-1-carbonyl]-2-methylphenyl]-1,1-dioxothiolane-3-sulfonamide], the inhibition at 100 µM was 89%.

Compound `Cc1ccc(C(=O)N2CCC(c3ccc(CN4CCOCC4)cc3)CC2)cc1NS(C)(=O)=O` [Example 243, N-[2-methyl-5-[4-[4-(morpholin-4-ylmethyl)phenyl]piperidine-1-carbonyl]phenyl]methanesulfonamide] has an inhibition at 100 µM of 69.9%.

Work on `CCS(=O)(=O)N1CCC(S(=O)(=O)Nc2cc(C(=O)N3CCC(c4ccc(C#N)cc4)CC3)ccc2C)CC1` [Example 122, N-[5-[4-(4-cyanophenyl)piperidine-1-carbonyl]-2-methyl-phenyl]-1-ethylsulfonyl-piperidine-4-sulfonamide] yielded an inhibition at 100 µM of 98%.

`CCc1ccc(C(=O)N2CCC(c3ccc(C#N)cc3)CC2)cc1NS(C)(=O)=O` [Example 123, N-[5-[4-(4-cyanophenyl)piperidine-1-carbonyl]-2-ethyl-phenyl]methanesulfonamide] showed an inhibition at 100 µM of 85%.

With `Cc1ccc(C(=O)N2CCC(c3ccc(Br)cc3)CC2)cc1NS(C)(=O)=O` [Example 169, N-[5-[4-(4-bromophenyl)piperidine-1-carbonyl]-2-methylphenyl]methanesulfonamide] the inhibition at 100 µM was 90%.

For `COc1ccccc1S(=O)(=O)Nc1ccc(C)c(C(=O)N2CCC(c3ccc(C#N)cc3)CC2)c1` [Example 50, N-[3-[4-(4-cyanophenyl)piperidine-1-carbonyl]-4-methyl-phenyl]-2-methoxy-benzenesulfonamide], the inhibition at 100 µM was 87%.

For `CC(=O)Nc1ccc(S(=O)(=O)Nc2cc(C(=O)N3CCC(c4ccc(C#N)cc4)CC3)ccc2C)cc1` [Example 22, N-[4-[[5-[4-(4-cyanophenyl)piperidine-1-carbonyl]-2-methyl-phenyl]sulfamoyl]phenyl]acetamide], the inhibition at 100 µM was 95%.

`Cc1ccc(C(=O)N2CCC(c3ccc(C#N)cc3)CC2)cc1NS(=O)(=O)C1CC1` [Example 14, N-[5-[4-(4-cyanophenyl)piperidine-1-carbonyl]-2-methyl-phenyl]cyclopropanesulfonamide] was tested, and the inhibition at 100 µM was 89%.
